Experimental data: ChEMBL document CHEMBL5241129, “Design and synthesis of novel orexin 2 receptor agonists with a 1,3,5‑trioxazatriquinane skeleton” (Bioorg Med Chem Lett, 2023)
Active and inactive are the calls of the source. The calls are words filed in the database; no cut-off is given here.

biological target: T1, Orexin/Hypocretin receptor type 1 (Homo sapiens) (UniProt O43613); assay: Antagonist activity at OX1R (unknown origin) expressed in CHO cells at 10 uM in presence of orexin A by cell based calcium assay; conditions: not given
T1 sequence (whole entry): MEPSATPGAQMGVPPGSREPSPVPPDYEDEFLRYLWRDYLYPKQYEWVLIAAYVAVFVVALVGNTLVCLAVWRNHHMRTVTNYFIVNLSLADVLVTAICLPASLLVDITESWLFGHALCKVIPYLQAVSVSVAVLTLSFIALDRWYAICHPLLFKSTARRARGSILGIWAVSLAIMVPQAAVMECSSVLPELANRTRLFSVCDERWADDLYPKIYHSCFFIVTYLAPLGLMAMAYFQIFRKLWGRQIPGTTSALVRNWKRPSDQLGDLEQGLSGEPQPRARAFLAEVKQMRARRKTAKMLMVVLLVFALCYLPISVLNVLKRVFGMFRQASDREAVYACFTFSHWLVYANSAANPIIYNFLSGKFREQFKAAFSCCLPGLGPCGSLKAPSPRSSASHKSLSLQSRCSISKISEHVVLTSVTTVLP

| SMILES | Activity |
| --- | --- |
| CCCCCCCCS(=O)(=O)NC[C@@]1(C)O[C@@H]2CO[C@H]3N2[C@@H]1O[C@]3(C)CNS(=O)(=O)CCCCCCCC (racemic) | inactive |
| CCCS(=O)(=O)NC[C@@]1(C)O[C@@H]2CO[C@H]3N2[C@@H]1O[C@]3(C)CNS(=O)(=O)CCC | inactive |
| CCCCCCCCS(=O)(=O)NC[C@]1(C)O[C@@H]2CO[C@H]3N2[C@@H]1O[C@@]3(C)CNS(=O)(=O)CCCCCCCC (stereo in doubt; 28a) | inactive |
| C[C@]1(CNS(C)(=O)=O)O[C@@H]2CO[C@H]3N2[C@@H]1O[C@]3(C)CNS(C)(=O)=O | inactive |
| CCCCS(=O)(=O)NC[C@@]1(C)O[C@@H]2CO[C@H]3N2[C@@H]1O[C@]3(C)CNS(=O)(=O)CCCC | inactive |
| CC(C)(C)OC(=O)NC[C@@]1(C)O[C@@H]2CO[C@H]3N2[C@@H]1O[C@]3(C)CNC(=O)OC(C)(C)C (racemic) | inactive |

biological target: T2, Orexin/Hypocretin receptor type 1 (Homo sapiens, UniProt O43613); assay: Antagonist activity at OX1R (unknown origin); conditions: not given
T2 sequence (O43613 whole entry): T1 sequence (whole entry)

| SMILES | Ki [nM] |
| --- | --- |
| COc1ccc(C(=O)Nc2cccc([C@]3(C)O[C@H]4CO[C@@H]5N4[C@H]3O[C@@]5(C)c3cccc(NC(=O)c4ccc(OC)cc4)c3)c2)cc1 | 5.23 |
| COc1ccc(C(=O)Nc2cccc([C@@]3(C)O[C@@H]4CO[C@H]5N4[C@@H]3O[C@]5(C)c3cccc(NC(=O)c4ccc(OC)cc4)c3)c2)cc1 | 2.17 |

biological target: T1, Orexin/Hypocretin receptor type 1 (Homo sapiens); assay: Agonist activity at OX1R (unknown origin) expressed in CHO cells at 10 uM by cell based calcium assay relative to orexin A; conditions: not given

| SMILES | Emax [%] |
| --- | --- |
| CCCCCCCCS(=O)(=O)NC[C@@]1(C)O[C@@H]2CO[C@H]3N2[C@@H]1O[C@]3(C)CNS(=O)(=O)CCCCCCCC (racemic) | 23.6 |
| CC(C)(C)OC(=O)NC[C@@]1(C)O[C@@H]2CO[C@H]3N2[C@@H]1O[C@@]3(C)CNC(=O)OC(C)(C)C | 2.21 |
| CCCS(=O)(=O)NC[C@@]1(C)O[C@@H]2CO[C@H]3N2[C@@H]1O[C@]3(C)CNS(=O)(=O)CCC | 14.2 |
| CC(C)(C)NC(=O)NC[C@@]1(C)O[C@@H]2CO[C@H]3N2[C@@H]1O[C@]3(C)CNC(=O)NC(C)(C)C | 2.81 |
| CCCCCCCCS(=O)(=O)NC[C@]1(C)O[C@@H]2CO[C@H]3N2[C@@H]1O[C@@]3(C)CNS(=O)(=O)CCCCCCCC (stereo in doubt; 28a) | 11.8 |
| C[C@]1(CNS(C)(=O)=O)O[C@@H]2CO[C@H]3N2[C@@H]1O[C@]3(C)CNS(C)(=O)=O | 5.66 |
| CCCCCCCCS(=O)(=O)NC[C@@]1(C)O[C@H]2CO[C@@H]3N2[C@H]1O[C@]3(C)CNS(=O)(=O)CCCCCCCC | 5.29 |
| CCCCCCCCS(=O)(=O)NC[C@@]1(C)O[C@@H]2CO[C@H]3N2[C@@H]1O[C@@]3(C)CNS(=O)(=O)CCCCCCCC | 3.86 |
| CCCCS(=O)(=O)NC[C@@]1(C)O[C@@H]2CO[C@H]3N2[C@@H]1O[C@]3(C)CNS(=O)(=O)CCCC | 11.1 |
| CCCCCCCCS(=O)(=O)N(C)C[C@@]1(C)O[C@@H]2CO[C@H]3N2[C@@H]1O[C@]3(C)CN(C)S(=O)(=O)CCCCCCCC | 2.65 |
| CC(C)(C)OC(=O)NC[C@]1(C)O[C@@H]2CO[C@H]3N2[C@@H]1O[C@@]3(C)CNC(=O)OC(C)(C)C (stereo in doubt; (+)-20d) | 5.07 |
| CC(C)(C)OC(=O)NC[C@@]1(C)O[C@H]2N3[C@@H](CO[C@@H]31)O[C@@]2(C)CNC(=O)OC(C)(C)C | 4.94 |
| CN(C[C@@]1(C)O[C@@H]2CO[C@H]3N2[C@@H]1O[C@]3(C)CN(C)C(=O)OC(C)(C)C)C(=O)OC(C)(C)C | 4.47 |
| CCCCCCCCS(=O)(=O)NC[C@]1(C)O[C@@H]2CO[C@H]3N2[C@@H]1O[C@@]3(C)CNS(=O)(=O)CCCCCCCC (stereo in doubt; (+)-28d) [listing 1 of 2 here] | 5.66 |
| CC(C)(C)OC(=O)NC[C@@]1(C)O[C@H]2CO[C@@H]3N2[C@H]1O[C@]3(C)CNC(=O)OC(C)(C)C | 4.31 |
| CCCCCCCCS(=O)(=O)NC[C@@]1(C)O[C@H]2N3[C@@H](CO[C@@H]31)O[C@@]2(C)CNS(=O)(=O)CCCCCCCC | 3.71 |
| CC(C)(C)OC(=O)NC[C@]1(C)O[C@@H]2CO[C@H]3N2[C@@H]1O[C@@]3(C)CNC(=O)OC(C)(C)C (stereo in doubt; 20a) | 30.1 |

same assay, conditions: filed as agonist

| SMILES | Emax [%] |
| --- | --- |
| CC(C)(C)OC(=O)NC[C@@]1(C)O[C@@H]2CO[C@H]3N2[C@@H]1O[C@]3(C)CNC(=O)OC(C)(C)C (racemic) | 54 |

biological target: T3, Orexin receptor type 2 (Homo sapiens) (UniProt O43614); assay: Agonist activity at OX2R (unknown origin) expressed in CHO cells at 10 uM by cell based calcium assay; conditions: not given
T3 sequence (whole entry): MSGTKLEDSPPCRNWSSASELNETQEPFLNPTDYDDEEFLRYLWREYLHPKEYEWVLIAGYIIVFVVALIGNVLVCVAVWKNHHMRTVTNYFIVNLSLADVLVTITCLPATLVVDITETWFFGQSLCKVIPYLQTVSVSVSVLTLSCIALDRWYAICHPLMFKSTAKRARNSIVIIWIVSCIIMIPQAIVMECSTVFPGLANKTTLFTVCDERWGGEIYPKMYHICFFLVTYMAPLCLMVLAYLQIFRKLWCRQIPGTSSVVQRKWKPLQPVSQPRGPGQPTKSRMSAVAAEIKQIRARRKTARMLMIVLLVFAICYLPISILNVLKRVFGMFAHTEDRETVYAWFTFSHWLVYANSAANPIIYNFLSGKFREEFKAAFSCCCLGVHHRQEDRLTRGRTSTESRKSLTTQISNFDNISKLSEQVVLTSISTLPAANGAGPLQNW

| SMILES | Activity |
| --- | --- |
| COc1ccccc1C(=O)NC[C@]1(C)O[C@H]2CO[C@@H]3N2[C@H]1O[C@@]3(C)CNC(=O)c1ccccc1OC | inactive |
| C=CCOC(=O)NC[C@]1(C)O[C@H]2CO[C@@H]3N2[C@H]1O[C@@]3(C)CNC(=O)OCC=C | inactive |
| COc1ccccc1C(=O)NC[C@@]1(C)O[C@H]2CO[C@@H]3N2[C@H]1O[C@]3(C)CNC(=O)c1ccccc1OC | inactive |
| C[C@]1(CNC(=O)CCc2ccccc2)O[C@H]2CO[C@@H]3N2[C@H]1O[C@]3(C)CNC(=O)CCc1ccccc1 | inactive |
| CC(=O)NC[C@@]1(C)O[C@H]2CO[C@@H]3N2[C@H]1O[C@]3(C)CNC(C)=O | inactive |
| C[C@@]1(CNC(=O)c2ccccc2)O[C@H]2CO[C@@H]3N2[C@H]1O[C@@]3(C)CNC(=O)c1ccccc1 | inactive |
| C=CCOC(=O)NC[C@@]1(C)O[C@H]2CO[C@@H]3N2[C@H]1O[C@]3(C)CNC(=O)OCC=C | inactive |
| C[C@]1(CNC(=O)OCC(Cl)(Cl)Cl)O[C@H]2CO[C@@H]3N2[C@H]1O[C@]3(C)CNC(=O)OCC(Cl)(Cl)Cl | inactive |
| CC(=O)NC[C@]1(C)O[C@H]2CO[C@@H]3N2[C@H]1O[C@@]3(C)CNC(C)=O | inactive |
| C[C@]1(CNC(=O)/C=C/c2ccccc2)O[C@H]2CO[C@@H]3N2[C@H]1O[C@]3(C)CNC(=O)/C=C/c1ccccc1 | inactive |
| C[C@@]1(CNC(=O)OCC(Cl)(Cl)Cl)O[C@H]2CO[C@@H]3N2[C@H]1O[C@@]3(C)CNC(=O)OCC(Cl)(Cl)Cl | inactive |
| COC(=O)NC[C@]1(C)O[C@H]2CO[C@@H]3N2[C@H]1O[C@@]3(C)CNC(=O)OC | inactive |
| C[C@]1(CNC(=O)Cc2ccccc2)O[C@H]2CO[C@@H]3N2[C@H]1O[C@]3(C)CNC(=O)Cc1ccccc1 | inactive |
| C[C@@]1(CNC(=O)Cc2ccccc2)O[C@H]2CO[C@@H]3N2[C@H]1O[C@@]3(C)CNC(=O)Cc1ccccc1 | inactive |
| C[C@@]1(CNC(=O)/C=C/c2ccccc2)O[C@H]2CO[C@@H]3N2[C@H]1O[C@@]3(C)CNC(=O)/C=C/c1ccccc1 | inactive |
| C[C@@]1(CNC(=O)OCc2ccccc2)O[C@H]2CO[C@@H]3N2[C@H]1O[C@@]3(C)CNC(=O)OCc1ccccc1 | inactive |
| COC(=O)NC[C@@]1(C)O[C@H]2CO[C@@H]3N2[C@H]1O[C@]3(C)CNC(=O)OC | inactive |
| CC(C)(C)C(=O)NC[C@]1(C)O[C@H]2CO[C@@H]3N2[C@H]1O[C@@]3(C)CNC(=O)C(C)(C)C | inactive |
| C[C@]1(CNC(=O)OCc2ccccc2)O[C@H]2CO[C@@H]3N2[C@H]1O[C@]3(C)CNC(=O)OCc1ccccc1 | inactive |
| CC(C)(C)C(=O)NC[C@@]1(C)O[C@H]2CO[C@@H]3N2[C@H]1O[C@]3(C)CNC(=O)C(C)(C)C | inactive |
| COc1cccc(C(=O)NC[C@@]2(C)O[C@H]3CO[C@@H]4N3[C@H]2O[C@]4(C)CNC(=O)c2cccc(OC)c2)c1 | inactive |
| C[C@]1(CNS(=O)(=O)c2ccccc2)O[C@H]2CO[C@@H]3N2[C@H]1O[C@]3(C)CNS(=O)(=O)c1ccccc1 | inactive |
| C[C@@]1(CNC(=O)CCc2ccccc2)O[C@H]2CO[C@@H]3N2[C@H]1O[C@@]3(C)CNC(=O)CCc1ccccc1 | inactive |
| COc1cccc(C(=O)NC[C@]2(C)O[C@H]3CO[C@@H]4N3[C@H]2O[C@@]4(C)CNC(=O)c2cccc(OC)c2)c1 | inactive |
| COc1ccc(C(=O)NC[C@]2(C)O[C@H]3CO[C@@H]4N3[C@H]2O[C@@]4(C)CNC(=O)c2ccc(OC)cc2)cc1 | inactive |
| C[C@]1(CNC(=O)c2ccccc2)O[C@H]2CO[C@@H]3N2[C@H]1O[C@]3(C)CNC(=O)c1ccccc1 | inactive |
| COc1ccc(C(=O)NC[C@@]2(C)O[C@H]3CO[C@@H]4N3[C@H]2O[C@]4(C)CNC(=O)c2ccc(OC)cc2)cc1 | inactive |

biological target: T4, Orexin receptor type 2 (Homo sapiens, UniProt O43614); assay: Agonist activity at OX2R (unknown origin) expressed in CHO cells by cell based calcium assay; conditions: not given
T4 sequence (O43614 whole entry): T3 sequence (whole entry)

| SMILES | EC50 [nM] |
| --- | --- |
| CCCCCCCCS(=O)(=O)NC[C@@]1(C)O[C@H]2CO[C@@H]3N2[C@H]1O[C@]3(C)CNS(=O)(=O)CCCCCCCC | 2420 |
| CCCCCCCCS(=O)(=O)NC[C@]1(C)O[C@@H]2CO[C@H]3N2[C@@H]1O[C@@]3(C)CNS(=O)(=O)CCCCCCCC (stereo in doubt; (+)-28d) [listing 2 of 2 here] | 1620 |

biological target: T1, Orexin/Hypocretin receptor type 1 (Homo sapiens); assay: Agonist activity at OX1R (unknown origin) expressed in CHO cells at 10 uM by cell based calcium assay; conditions: not given

| SMILES | Activity |
| --- | --- |
| C[C@]1(CNS(=O)(=O)c2ccccc2)O[C@H]2CO[C@@H]3N2[C@H]1O[C@]3(C)CNS(=O)(=O)c1ccccc1 | inactive |
